For experiment [1], the system named is recombinant guanylate cyclase reporter cell line. Briefly: sGC-activating activity in the CHO reporter cell in vitro. The format is cell-based. Particulars: read-out: MEC (minimum effective concentration). Here is the method: B-2. Action at a Recombinant Guanylate Cyclase Reporter Cell Line
The cellular action of the compounds according to the invention is determined at a recombinant guanylate cyclase reporter cell line, as described in F. Wunder et al., Anal. Biochem. 32, 104-112 (2005).

In another experiment the test system is saphenous artery rings. As to the kind of experiment: Vasorelaxant effect in vitro (phenylephrine-contracted saphenous artery rings). Further details: species or system Rabbits. To be noted: rabbit saphenous artery rings, read-out: IC50 (concentration reducing phenylephrine-induced contraction by 50%). How it is done: B-3. Vasorelaxant Effect In Vitro
Rabbits are anaesthetized and sacrificed by intravenous injection of thiopental sodium (about 50 mg/kg) and exsanguinated. The saphenous artery is removed and divided into rings 3 mm wide. The rings are mounted singly on in each case a pair of triangular hooks open at the end and made of 0.3 mm-thick special wire (Remanium®). Each ring is placed under an initial tension in 5 ml organ baths with Krebs-Henseleit solution which is at 37° C., is gassed with carbogen and has the following composition: NaCl 119 mM; KCl 4.8 mM; CaCl2×2 H2O 1 mM; MgSO4×7H2O 1.4 mM; KH2PO4 1.2 mM; NaHCO3 25 mM; glucose 10 mM; bovine serum albumin 0.001%. The force of contraction is detected with Statham UC2 cells, amplified and digitized via A/D converters (DAS-1802 HC, Keithley Instruments, Munich) and recorded in parallel on chart recorders. Contractions are induced by addition of phenylephrine.
After several (generally 4) control cycles, the substance to be investigated is added in each further run in increasing dosage, and the level of the contraction achieved under the influence of the test substance is compared with the level of the contraction reached in the last preceding run. The concentration necessary to reduce the contraction reached in the preceding control by 50% is calculated from this (IC50). The standard application volume is 5 μl. The proportion of DMSO in the bath solution corresponds to 0.1%.

The target of experiment [2] is T1, haem-containing recombinant soluble guanylate cyclase (sGC) (Rattus norvegicus, UniProt P20595).
T1 construct: made in house; host or cells: Sf9 insect cells (baculovirus)
T1 sequence (P20595 1-619): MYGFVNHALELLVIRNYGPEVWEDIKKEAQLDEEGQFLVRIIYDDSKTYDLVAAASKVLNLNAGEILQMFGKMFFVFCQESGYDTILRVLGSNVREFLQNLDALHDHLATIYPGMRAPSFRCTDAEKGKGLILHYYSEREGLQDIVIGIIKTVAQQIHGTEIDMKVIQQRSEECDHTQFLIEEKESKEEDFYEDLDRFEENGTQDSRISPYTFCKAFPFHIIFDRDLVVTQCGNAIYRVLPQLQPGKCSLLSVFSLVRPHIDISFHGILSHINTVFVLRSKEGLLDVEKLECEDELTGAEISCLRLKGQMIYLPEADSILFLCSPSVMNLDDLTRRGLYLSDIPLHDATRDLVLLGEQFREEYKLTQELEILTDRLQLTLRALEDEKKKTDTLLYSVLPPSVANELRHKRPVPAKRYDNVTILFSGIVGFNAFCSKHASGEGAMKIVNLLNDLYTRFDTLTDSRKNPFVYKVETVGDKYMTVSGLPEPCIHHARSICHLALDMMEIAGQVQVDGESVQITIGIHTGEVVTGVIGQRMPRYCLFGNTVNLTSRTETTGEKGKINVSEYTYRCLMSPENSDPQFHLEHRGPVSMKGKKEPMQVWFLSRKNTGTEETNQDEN
T1 sequence (P19686 1-690 partner): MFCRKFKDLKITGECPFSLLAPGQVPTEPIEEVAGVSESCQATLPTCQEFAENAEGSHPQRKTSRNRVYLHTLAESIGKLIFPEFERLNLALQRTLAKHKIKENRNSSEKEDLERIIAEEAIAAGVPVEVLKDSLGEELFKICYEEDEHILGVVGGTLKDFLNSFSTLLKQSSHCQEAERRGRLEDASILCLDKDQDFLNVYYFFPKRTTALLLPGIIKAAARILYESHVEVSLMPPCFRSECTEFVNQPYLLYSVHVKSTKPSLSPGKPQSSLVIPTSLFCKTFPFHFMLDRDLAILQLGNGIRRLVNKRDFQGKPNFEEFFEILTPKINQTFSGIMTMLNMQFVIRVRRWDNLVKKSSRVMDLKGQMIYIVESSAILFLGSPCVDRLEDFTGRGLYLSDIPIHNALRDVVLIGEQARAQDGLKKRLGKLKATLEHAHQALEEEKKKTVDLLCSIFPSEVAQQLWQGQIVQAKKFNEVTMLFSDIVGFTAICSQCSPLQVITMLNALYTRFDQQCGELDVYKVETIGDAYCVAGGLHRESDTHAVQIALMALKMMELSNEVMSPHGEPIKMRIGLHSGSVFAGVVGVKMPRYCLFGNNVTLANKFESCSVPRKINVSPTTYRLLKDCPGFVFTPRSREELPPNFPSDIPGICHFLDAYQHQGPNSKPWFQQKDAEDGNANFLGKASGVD
As to the kind of experiment: Stimulation of recombinant soluble guanylate cyclase (sGC) in vitro, haem-containing enzyme. The format is biochemical. How it is done: (§1) B-1. Stimulation of Recombinant Soluble Guanylate Cyclase (sGC) In Vitro
(§2) Investigations on the stimulation of recombinant soluble guanylate cyclase (sGC) by the compounds according to the invention with and without sodium nitroprusside, and with and without the haem-dependent sGC inhibitor 1H-1,2,4-oxadiazolo[4,3a]quinoxalin-1-one (ODQ), are carried out by the method described in detail in the following reference: M. Hoenicka, E. M. Becker, H. Apeler, T. Sirichoke, H. Schroeder, R. Gerzer and J.-P. Stasch, “Purified soluble guanylyl cyclase expressed in a baculovirus/Sf9 system: Stimulation by YC-1, nitric oxide, and carbon oxide”, J. Mol. Med 77 (1999), 14-23. The haem-free guanylate cyclase is obtained by adding Tween 20 to the sample buffer (0.5% in the final concentration).
The activation of sGC by a test substance is reported as x-fold stimulation of the basal activity. The result for Example 2 is shown in Table 1A, that for Example 23 in Table 1B and that for Example 39 in Table 1C:
[DEA/NO=2-(N,N-diethylamino)diazenolate 2-oxide; ODQ=1H-1,2,4-oxadiazolo-[4,3a]quinoxalin-1-one].

Experiment [3] addresses T2, haem-free recombinant soluble guanylate cyclase (sGC) (Rattus norvegicus, UniProt P20595).
T2 construct: made in house; host or cells: Sf9 insect cells (baculovirus)
T2 sequence (P20595 1-619): T1 sequence (P20595 1-619)
T2 sequence (P19686 1-690 partner): T1 sequence (P19686 1-690 partner)
Briefly: Stimulation of recombinant soluble guanylate cyclase (sGC) in vitro, haem-free enzyme. In kind it is biochemical. How it is done:
as §1, §2
The activation of sGC by a test substance is reported as x-fold stimulation of the basal activity. The result for Example 2 is shown in Table 1A, that for Example 23 in Table 1B and that for Example 39 in Table 1C: […]

The subject of experiment [4] is animal model of pulmonary hypertension. To be noted: cited from earlier work.

These results are taken from patent US10053428B2, “5-aminotetrahydroquinoline-2-carboxylic acids and their use” (BAYER PHARMA AKTIENGESELLSCHAFT, priority 2012, dated 2018).

Like-named read-outs stand apart in the source and are kept apart here.

In the case of `O=C(O)CCCCN(CCc1ccccc1OCc1ccc(-c2ccc(C(F)(F)F)cc2)cc1)C1CCCc2nc(C(=O)O)ccc21` (single isomer, unassigned) [Example 18], in experiment [1], the minimal effective concentration is recorded as 0.3 nM. Also, the IC50 in the experiment with saphenous artery rings (Oryctolagus cuniculus) was determined as 0.4 nM.
As for `Cc1ccc2oc(-c3ccc(COc4ccccc4CCN(CCCCC(=O)O)C4CCCc5nc(C(=O)O)ccc54)cc3)nc2c1` (single isomer, unassigned; enantiomer 1) [Example 1, (−)-5-{(4-Carboxybutyl)[2-(2-{[4-(5-methyl-1,3-benzoxazol-2-yl)benzyl]oxy}phenyl)ethyl]-amino}-5,6,7,8-tetrahydroquinoline-2-carboxylic acid (Enantiomer 1)], the minimal effective concentration in experiment [1] came to 160 nM. In addition, the IC50 in the experiment on saphenous artery rings is 571 nM.
The corresponding values for `O=C(O)CCCCN(CCc1ccccc1OCc1ccc(CCc2ccccc2)cc1)C1CCCc2nc(C(=O)O)ccc21` (single isomer, unassigned; enantiomer 1) [Example 13, 5-{(4-Carboxybutyl)[2-(2-{[4-(2-phenylethyl)benzyl]oxy}phenyl)ethyl]amino}-5,6,7,8-tetrahydroquinoline-2-carboxylic acid (Enantiomer 1)] are 0.3 nM and 0.1 nM.
`Cc1ccc2oc(-c3ccc(COc4ccccc4CCN(CCCCC(=O)O)C4CCCc5nc(C(=O)O)ccc54)cc3)nc2c1` (single isomer, unassigned; enantiomer 2) [Example 2, (+)-5-{(4-Carboxybutyl)[2-(2-{[4-(5-methyl-1,3-benzoxazol-2-yl)benzyl]oxy}phenyl)ethyl]-amino}-5,6,7,8-tetrahydroquinoline-2-carboxylic acid (Enantiomer 2)]: in experiment [2] (combination with DEA/NO), the “Effect of combination with the NO donor DEA/NO on sGC stimulation” value is reported as “no synergistic effect”. The “Stimulation (x-fold), haem-containing sGC, basal” value in experiment [2] (test compound 0.01 μM) turned out to be 13.7 ± 1.9 x-fold; in experiment [2] (test compound 0.1 μM), 31.2 ± 3.5 x-fold; in experiment [2] (test compound 1.0 μM) it was 40.2 ± 4.0 x-fold; in experiment [2] (test compound 10 μM) it was 51.6 ± 6.4 x-fold. Further, the “Stimulation (x-fold), haem-containing sGC, +0.01 μM DEA/NO” value was found to be 20.2 ± 3.8 x-fold in experiment [2] (test compound 0.01 μM), 42.7 ± 7.2 x-fold in experiment [2] (test compound 0.1 μM), 56.5 ± 10.5 x-fold in experiment [2] (test compound 1.0 μM) and 62.7 ± 11.0 x-fold in experiment [2] (test compound 10 μM). The “Stimulation (x-fold), haem-containing sGC, +10 μM ODQ” value in experiment [2] (test compound 0.01 μM) came out at 63.9 ± 12.2 x-fold; in experiment [2] (test compound 0.1 μM) it was 129.2 ± 18.9 x-fold; in experiment [2] (test compound 1.0 μM) it was 172.2 ± 26.3 x-fold; in experiment [2] (test compound 10 μM) it was 189.5 ± 28.2 x-fold. Besides, the “Stimulation (x-fold), haem-free sGC, basal” value in experiment [3] (test compound 0.01 μM) was found to be 5.2 ± 0.6 x-fold; in experiment [3] (test compound 0.1 μM) it was 19.9 ± 2.2 x-fold; in experiment [3] (test compound 1.0 μM) it was 82.7 ± 10.5 x-fold; in experiment [3] (test compound 10 μM) it was 169.5 ± 23.6 x-fold. For the same compound, the minimal effective concentration in experiment [1] is listed as 1.1 nM. The IC50 in the experiment on saphenous artery rings was determined as 3.6 nM.
On to `O=C(O)CCCCN(CCc1ccccc1OCc1ccc(CCc2ccccc2)cc1)Cc1ccc(C(=O)O)cc1` [BAY 58-2667, cinaciguat], for which the Duration of action entry in experiment [4] (inhalative) is reported as “did not have a sufficient duration of action”. Further, the “Pulmonary arterial pressure after inhalative administration” value in experiment [4] (microparticles) was “dose-dependent selective reduction”.
